{"source": "patent EP1311486B1", "about": "“USES OF THALIPORPHINE OR ITS DERIVATIVES IN TREATMENT OF CARDIAC DISEASES AND PREPARATION OF SAME” (Lotus Pharmaceutical Co., Ltd., priority 2000, dated 2002)", "key": {"[1]": {"test_system": "delayed outward potassium current (IK)", "assay": "Inhibition of delayed outward potassium current", "details": "guinea pigs", "protocol": "Moreover, 3-10µM THP prolongs the action potential duration in the atria or ventricles of both rats and guinea pigs (data not shown)."}, "[2]": {"assay": "Superoxide anion scavenging, xanthine/xanthine oxidase system", "assay_type": "biochemical"}, "in vivo anesthetized rat": {"test_system": "in vivo anesthetized rat", "assay": "Ischemia-induced arrhythmias in the anesthetized rat (30 minutes coronary occlusion)", "protocol": "(§1) Myocardial ischemia was performed by a temporary tightening of the silk ligature around the left main coronary artery. Reperfusion was achieved by releasing the tension applied to the ligature (operated groups). Sham operated animals underwent all surgical procedures, apart from the fact that the silk, passing around the left coronary artery, was not tied (sham groups). Animals were infused with a bolus of THP (3.5x10^-7, 3.5x10^-6, 3.5x10^-5 g/kg), L-NAME (N^∞-nitro-L-arginine methyl ester; 1x10^-3 g/kg) or vehicle (dimethyl sulfoxide/ NaCl 0.9%, 1:10^3; v/v) from a jugular vein 15 minutes before coronary occlusion. The coronary artery was occluded for 30 minutes or 5 minutes followed by 30 minutes reperfusion and with the animals then divided randomly in the following groups: (1) sham + vehicle; (2) sham + THP (3.5x10^-5g/kg); (3) operated + vehicle; (4) operated + THP (3.5x10^-7 g/kg); (5) operated + THP (3.5x10^-6 g/kg); (6) operated + THP (3.5x10^-5 g/kg); (7) operated + L-NAME (1x10^-3 g/kg) + THP (3.5x10^-5 g/kg). Before and during the ischemia or reperfusion period, heart rate (HR), blood pressure (BP) and ECG changes were recorded. Ventricular ectopic activity was evaluated according to the diagnostic criteria advocated in the Lambeth Convention. The incidence and duration of ventricular tachyarrhythmias, including ventricular tachycardia (VT) and ventricular fibrillation (VF), in surviving animals was determined. The Mann-Whitney rank-sum test was used to analyze the differences in the duration of VT and VF between vehicle and drug treated groups. The BP and HR changes between vehicle and drug treated rats in the arrhythmia study were analyzed by ANOVA (analysis of variance) followed by Bonferroni's test. The difference in the percentage incidence of VT, VF and mortality rate was analyzed with a Chi-square test. Table 2 Effect of THP on ischemia-induced arrhythmias in the in vivo anesthetized rat\nIn ischemic condition, severe ventricular arrhythmias in the vehicle group begins after 6-7 minutes of coronary artery occlusion, peaks after 8-12 minutes, and normally subsides after approximately 15 minutes from initiation. The duration of VF is calculated to be 32.1±8.9 seconds, and the duration of VT is 36.8±8.8 seconds. […] Administration of THP at 3.5x10^-5 g/kg results in a decrease of the incidence of VT and VF to 10% and 0%, respectively (p<0.05). […] A particular important finding is the very effective reduction of mortality even at very low dose of THP 3.5x 10^-7 g/kg."}, "[3]": {"test_system": "rats subjected to myocardial ischemia", "assay": "Blood pressure and heart rate in rats subjected to 30 minutes coronary ligation", "assay_type": "in vivo", "details": "intravenous, 3.5x10^-6 or 3.5x10^-5 g/kg", "protocol": "as §1\nNo significant difference can be seen among vehicle and drug groups (3.5x10^-6 or 3.5x10^-5 g/kg, THP)."}, "[4]": {"test_system": "rats subjected to 4 hours coronary ligation", "assay": "Area at risk and infarct size after 4 hours coronary ligation (triphenyl tetrazolium chloride-Evan's blue staining)", "assay_type": "in vivo, rat", "protocol": "Infarct size was determined by the triphenyl tetrazolium chloride-Evan's blue staining technique. The rat was sacrificed after its left descending coronary artery had been occluded for 4 hours. The weight of infarct tissue was expressed as a percentage of total ventricular weight or occluded zone. The difference in infarct size was statistically analyzed using unpaired Student's t-test. Table 4 Area at risk and infarct size in vehicle and THP-treated rats subjected to 4 hours coronary ligation\nThe difference in ischemic area and infarct size shown by staining technique after 4 hours of ischemia is evaluated. […] In the vehicle group, the necrotic area expresses either as a percentage of the area at risk (45.2±1.0%) or as a percentage of the total ventricle (19.8±2.2%), indicating the amount of cardiac tissue at risk becomes necrotic. Administration of THP reduces myocardial necrosis extension in a dose dependent manner. This reduction is observed either in the necrotic area/area at risk (38.1±5.0%, 29.0±2.5% and 10.7±1.8%/with 3.5x10^-7, 10^-6, 10^-5 g/kg of THP, respectively) or in the necrotic area/total ventricle (17.9+2.3%, 13.4±1.2% and 5.0±0.9% with 3.5x10^-7, 10^-6, 10^-5 g/kg of THP, respectively)."}, "inward calcium current": {"test_system": "inward calcium current", "details": "Su MJ, et al., Eur. J. Pharmacol., 1994; cited from earlier work"}}, "note": "“And” between values parts separate entries of the source, which are not always exact repeats. Equal entries are not always repeated. Marks after values point to notes of the source that are not given here.", "data": [{"smiles": "COc1cc2c(cc1OC)-c1c(O)c(OC)cc3c1C(C2)N(C)CC3", "note": "(single isomer, unassigned; (+)) [THP, (+)-Thaliporphine]", "values": [{"measurement": "delayed outward potassium current (IK)", "setting": "[1]", "result": "markedly inhibit"}, {"measurement": "EC50", "setting": "[2]", "result": 12.6, "unit": "µM"}, {"measurement": "Mortality (%)", "setting": "in vivo anesthetized rat; THP 3.5x10^-5 g/kg i.v.", "result": 0, "unit": "%"}, {"measurement": "VF Duration", "setting": "in vivo anesthetized rat; THP 3.5x10^-5 g/kg i.v.", "result": "0.0 ± 0.0", "unit": "s"}, {"measurement": "VF Incidence(%)", "setting": "in vivo anesthetized rat; THP 3.5x10^-5 g/kg i.v.", "result": 0, "unit": "%"}, {"measurement": "VT Duration", "setting": "in vivo anesthetized rat; THP 3.5x10^-5 g/kg i.v.", "result": "0.3 ± 0.3", "unit": "s"}, {"measurement": "VT Incidence(%)", "setting": "in vivo anesthetized rat; THP 3.5x10^-5 g/kg i.v.", "result": 10, "unit": "%"}, {"measurement": "Mortality (%)", "setting": "in vivo anesthetized rat; THP 3.5x10^-6 g/kg i.v.", "result": 0, "unit": "%"}, {"measurement": "VF Duration", "setting": "in vivo anesthetized rat; THP 3.5x10^-6 g/kg i.v.", "result": "0.5 ± 0.5", "unit": "s"}, {"measurement": "VF Incidence(%)", "setting": "in vivo anesthetized rat; THP 3.5x10^-6 g/kg i.v.", "result": 10, "unit": "%"}, {"measurement": "VT Duration", "setting": "in vivo anesthetized rat; THP 3.5x10^-6 g/kg i.v.", "result": "5.7 ± 3.3", "unit": "s"}, {"measurement": "VT Incidence(%)", "setting": "in vivo anesthetized rat; THP 3.5x10^-6 g/kg i.v.", "result": "50* %"}, {"measurement": "Mortality (%)", "setting": "in vivo anesthetized rat; THP 3.5x10^-7 g/kg i.v.", "result": 0, "unit": "%"}, {"measurement": "VF Duration", "setting": "in vivo anesthetized rat; THP 3.5x10^-7 g/kg i.v.", "result": "6.7 ± 4.9", "unit": "s"}, {"measurement": "VF Incidence(%)", "setting": "in vivo anesthetized rat; THP 3.5x10^-7 g/kg i.v.", "result": 20, "unit": "%"}, {"measurement": "VT Duration", "setting": "in vivo anesthetized rat; THP 3.5x10^-7 g/kg i.v.", "result": "16.1 ± 7.4", "unit": "s"}, {"measurement": "VT Incidence(%)", "setting": "in vivo anesthetized rat; THP 3.5x10^-7 g/kg i.v.", "result": 60, "unit": "%"}, {"measurement": "diastolic blood pressure", "setting": "[3]", "result": "does not modify"}, {"measurement": "heart rate (HR)", "setting": "[3]", "result": "does not modify"}, {"measurement": "systolic blood pressure", "setting": "[3]", "result": "does not modify"}, {"measurement": "Area at risk (% of ventricle)", "setting": "[4]; THP 3.5x10^-5 g/kg", "result": "46.9±0.5 % of ventricle"}, {"measurement": "Necrotic (% of Area at risk)", "setting": "[4]; THP 3.5x10^-5 g/kg", "result": "10.7±1.8 % of Area at risk"}, {"measurement": "Necrotic (% of ventricle)", "setting": "[4]; THP 3.5x10^-5 g/kg", "result": "5.0±0.9 % of ventricle"}, {"measurement": "Area at risk (% of ventricle)", "setting": "[4]; THP 3.5x10^-6 g/kg", "result": "46.5±0.9 % of ventricle"}, {"measurement": "Necrotic (% of Area at risk)", "setting": "[4]; THP 3.5x10^-6 g/kg", "result": "29.0±2.5 % of Area at risk"}, {"measurement": "Necrotic (% of ventricle)", "setting": "[4]; THP 3.5x10^-6 g/kg", "result": "13.4±1.2 % of ventricle"}, {"measurement": "Area at risk (% of ventricle)", "setting": "[4]; THP 3.5x10^-7 g/kg", "result": "47.0±0.6 % of ventricle"}, {"measurement": "Necrotic (% of Area at risk)", "setting": "[4]; THP 3.5x10^-7 g/kg", "result": "38.1±5.0 % of Area at risk"}, {"measurement": "Necrotic (% of ventricle)", "setting": "[4]; THP 3.5x10^-7 g/kg", "result": "17.9+2.3 % of ventricle and 17.9±2.3 % of ventricle"}, {"measurement": "inward calcium current", "setting": "inward calcium current", "result": "enhance"}]}]}
